Data set [1] deals with Rattus norvegicus. The data set can be described thus: compound was tested in vivo for 5-HTP accumulation in hemispheres (cortex) against reserpine-pretreated rats; I= inactive at the highest dose tested (50). The class given is functional, organism-based.
For data set [2], the system named is Rattus norvegicus. As to the kind of experiment: The compound was tested in vivo for DOPA accumulation in hemispheres (cortex) against reserpine-pretreated rats; I= inactive at the highest dose tested (50). In kind it is functional, organism-based.
For data set [3], the system named is Rattus norvegicus. As to the kind of experiment: compound was tested in vivo for DOPA accumulation in corpus striatum against reserpine-pretreated rats; P=significant partial reduction only at the highest dose tested (50). In kind it is functional, organism-based.
Data set [4] concerns the target T1, D(3) dopamine receptor (Rattus norvegicus, UniProt P19020). As to the kind of experiment: The compound was tested in vitro for binding affinity against cloned mammalian Dopamine receptor D3 expressed in CHO cells by, using [3H]spiperone as radioligand. The class given is cell-based.
The test system of data set [5] is Rattus norvegicus. As to the kind of experiment: The compound was tested in vivo for DOPA accumulation in limbic system against reserpine-pretreated rats; I= inactive at the highest dose tested (50). The class given is functional, organism-based.
Data set [6] deals with 5-hydroxytryptamine receptor 1B (Homo sapiens, UniProt P28222). As to the kind of experiment: Binding affinity against 5-hydroxytryptamine 1D receptor beta expressed in CHO-K1 cells, using [3H]5-HT as the radioligand. The class given is cell-based. To be noted: read-out: Ki.
For data set [7], the target named is T2, D(2) dopamine receptor (Rattus norvegicus, UniProt P61169). The data set can be described thus: Binding affinity against Dopamine receptor D2 expressed in CHO-K1 cells, using [3H]U-86170 as the radioligand. In kind it is cell-based.
For data set [8], the target named is 5-hydroxytryptamine receptor 1D (Homo sapiens, UniProt P28221). As to the kind of experiment: Binding affinity against 5-hydroxytryptamine 1D receptor alpha expressed in CHO-K1 cells, using [3H]-5-HT as the radioligand. In kind it is cell-based. To be noted: read-out: Ki.
Data set [9] concerns Rattus norvegicus. As to the kind of experiment: compound was tested in vivo for 5-HTP accumulation in corpus striatum against reserpine-pretreated rats, activity expressed as ED50; I= inactive at the highest dose tested (50). The class given is functional, organism-based.
Data set [10] has as its target T3, 5-hydroxytryptamine receptor 1A (Rattus norvegicus, UniProt P19327).
T3 sequence (P19327 whole entry): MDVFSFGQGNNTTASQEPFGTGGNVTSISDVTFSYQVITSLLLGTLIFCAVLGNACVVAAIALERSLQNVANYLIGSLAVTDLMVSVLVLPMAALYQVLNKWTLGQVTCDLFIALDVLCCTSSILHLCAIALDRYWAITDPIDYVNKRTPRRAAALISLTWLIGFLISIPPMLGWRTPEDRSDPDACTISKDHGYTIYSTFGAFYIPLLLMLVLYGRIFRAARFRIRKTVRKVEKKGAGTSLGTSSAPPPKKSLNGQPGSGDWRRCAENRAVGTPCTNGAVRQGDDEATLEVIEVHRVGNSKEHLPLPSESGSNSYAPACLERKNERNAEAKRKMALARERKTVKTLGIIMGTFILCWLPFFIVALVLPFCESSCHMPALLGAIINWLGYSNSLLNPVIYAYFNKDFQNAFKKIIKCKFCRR
As to the kind of experiment: Binding affinity against 5-hydroxytryptamine 1A receptor from CHO-K1 cells, using [3H]8-OH-DPAT as the radioligand. The class given is cell-based.

Data set [11] has as its system Rattus norvegicus. The data set can be described thus: compound was tested in vivo for 5-HTP accumulation in limbic system against reserpine-pretreated rats; I= inactive at the highest dose tested (50). The class given is functional, organism-based.
Data set [12] addresses T2, D(2) dopamine receptor. As to the kind of experiment: Binding affinity against Dopamine receptor D2 from CHO-K1 cells, using [3H]U-86,170 as the radioligand. The class given is cell-based.
Data set [13] deals with T1, D(3) dopamine receptor. The data set can be described thus: Binding affinity against Dopamine receptor D3 from CHO-K1 cells, using [3H]spiperone as the radioligand. In kind it is cell-based.
Data set [14] relates to Rattus norvegicus. As to the kind of experiment: compound was tested in vivo for 5-HTP accumulation in corpus striatum against reserpine-pretreated rats, activity expressed as ED50. The class given is functional.
In data set [15] the test system is Rattus norvegicus. The data set can be described thus: The compound was tested in vivo for DOPA accumulation in hemispheres (cortex) against reserpine-pretreated rats;I= inactive at the highest dose tested. The class given is functional, organism-based.
Data set [16] concerns Rattus norvegicus. The data set can be described thus: Bioavailability in male Sprague-Dawley rats, after the iv administration at a dose of 2.0(pmol/g/h). In kind it is ADME, organism-based. The following applies: in vivo.
Data set [17] relates to Rattus norvegicus. As to the kind of experiment: Bioavailability in male Sprague-Dawley rats, after the po administration at a dose of 10.0(pmol/g/h). The class given is ADME, organism-based. The following applies: in vivo.
The nature of data set [18]: tmax in hours at a iv dose of 2.0(pmol/g/h). In kind it is ADME, organism-based. The following applies: in vivo.
The nature of data set [19]: tmax in hours at a po dose of 10.0(pmol/g/h). The class given is ADME, organism-based. To be noted: in vivo, 10 pmol/g/h.
The nature of data set [20]: Bioavailability in rat plasma following iv/po dose. In kind it is ADME, organism-based.
Data set [21] can be described thus: Ratio of the 5-HTP accumulation decrease in limbic regions after oral and subcutaneous administration in rat. In kind it is functional, Limbic system.
The test system of data set [22] is Rattus norvegicus. As to the kind of experiment: In vivo for DOPA accumulation in corpus striatum against reserpine-pretreated rats. In kind it is functional.
Data set [23] concerns Rattus norvegicus. The data set can be described thus: In vivo for 5-HTP accumulation in limbic system against reserpine-pretreated rats. The class given is functional.
In data set [24] the test system is Rattus norvegicus. As to the kind of experiment: In vivo for 5-HTP accumulation in corpus striatum against reserpine-pretreated rats. In kind it is functional.
The subject of data set [25] is Rattus norvegicus. The data set can be described thus: The Compound was tested in vivo for DOPA accumulation in hemispheres (cortex) against reserpine-pretreated rats; I=inactive at the highest dose tested (3.1). In kind it is functional, organism-based.
Data set [26] relates to Rattus norvegicus. The data set can be described thus: In vivo for DOPA accumulation in limbic system against reserpine-pretreated rats. The class given is functional.
The target of data set [27] is T1, D(3) dopamine receptor. The data set can be described thus: Binding affinity against Dopamine receptor D3 expressed in CHO-K1 cells, using [3H]spiperone as the radioligand. In kind it is cell-based.
Data set [28] has as its system Rattus norvegicus. The data set can be described thus: In vivo for 5-HTP accumulation in hemispheres (cortex) against reserpine-pretreated rats. In kind it is functional.
For data set [29], the system named is Rattus norvegicus. As to the kind of experiment: The Compound was tested in vivo for DOPA accumulation in hemispheres (cortex) against reserpine-pretreated rats;I= inactive at the highest dose (12.5). The class given is functional, organism-based.
In data set [30] the test system is Rattus norvegicus. The data set can be described thus: The Compound was tested in vivo for DOPA accumulation in limbic system against reserpine-pretreated rats; P=significant partial reduction only at the highest dose tested (50). The class given is functional, organism-based.
The test system of data set [31] is Rattus norvegicus. As to the kind of experiment: The Compound was tested in vivo for DOPA accumulation in hemispheres (cortex) against reserpine-pretreated rats; I=inactive at the highest dose tested (50). The class given is functional, organism-based.
Data set [32] deals with Rattus norvegicus. The data set can be described thus: Compound was tested in vivo for DOPA accumulation in corpus striatum against reserpine-pretreated rats; P=significant partial reduction only at the highest dose tested (50). The class given is functional, organism-based.

Broadly, the ED50 is the dose that gives a 50% effect, or the effect in half of the subjects. Broadly, the Ki is a measure of affinity in units of concentration, obtained from inhibition or displacement. The Tmax is the time at which the peak concentration occurs. In general, bioavailability refers to dose-corrected exposure relative to a reference, in per cent. Read a high bioavailability as good availability.

Structures are written as SMILES. Calls of active or inactive are those of the source. The calls are words filed in the database; no cut-off is given here.

5-hydroxytryptamine receptor 1D, sequence (P28221 whole entry): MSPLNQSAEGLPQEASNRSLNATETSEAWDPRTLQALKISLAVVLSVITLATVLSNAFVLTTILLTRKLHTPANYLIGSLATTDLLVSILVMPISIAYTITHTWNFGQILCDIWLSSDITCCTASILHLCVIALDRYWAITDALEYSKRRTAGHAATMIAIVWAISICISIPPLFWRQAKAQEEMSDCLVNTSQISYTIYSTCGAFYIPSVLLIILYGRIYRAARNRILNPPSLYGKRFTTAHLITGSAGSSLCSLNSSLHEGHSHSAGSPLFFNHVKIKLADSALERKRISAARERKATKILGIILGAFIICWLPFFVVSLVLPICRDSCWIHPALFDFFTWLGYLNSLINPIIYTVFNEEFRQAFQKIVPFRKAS
T2 sequence (P61169 whole entry): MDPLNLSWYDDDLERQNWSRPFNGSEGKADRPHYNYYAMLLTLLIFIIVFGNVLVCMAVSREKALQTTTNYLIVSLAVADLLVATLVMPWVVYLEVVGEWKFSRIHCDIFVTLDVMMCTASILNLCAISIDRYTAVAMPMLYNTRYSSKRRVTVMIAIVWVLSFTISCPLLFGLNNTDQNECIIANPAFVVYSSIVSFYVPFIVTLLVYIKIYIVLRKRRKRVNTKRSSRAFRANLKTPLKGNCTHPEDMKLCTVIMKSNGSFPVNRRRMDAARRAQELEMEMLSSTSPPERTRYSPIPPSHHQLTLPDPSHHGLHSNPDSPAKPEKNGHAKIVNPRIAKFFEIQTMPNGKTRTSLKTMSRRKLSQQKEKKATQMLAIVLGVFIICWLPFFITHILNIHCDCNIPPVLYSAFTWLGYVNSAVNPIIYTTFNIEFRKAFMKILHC
5-hydroxytryptamine receptor 1B, sequence (P28222 whole entry): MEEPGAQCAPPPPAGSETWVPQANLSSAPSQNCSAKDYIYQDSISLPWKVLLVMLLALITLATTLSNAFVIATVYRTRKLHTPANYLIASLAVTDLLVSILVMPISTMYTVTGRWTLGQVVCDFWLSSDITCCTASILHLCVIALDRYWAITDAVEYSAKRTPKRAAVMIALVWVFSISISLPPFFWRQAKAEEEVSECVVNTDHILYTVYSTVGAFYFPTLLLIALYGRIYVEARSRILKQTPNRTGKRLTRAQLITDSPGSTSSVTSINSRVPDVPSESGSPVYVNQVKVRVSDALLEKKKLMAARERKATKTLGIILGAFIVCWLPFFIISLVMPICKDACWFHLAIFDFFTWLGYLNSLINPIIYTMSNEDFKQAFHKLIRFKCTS
T1 sequence (P19020 whole entry): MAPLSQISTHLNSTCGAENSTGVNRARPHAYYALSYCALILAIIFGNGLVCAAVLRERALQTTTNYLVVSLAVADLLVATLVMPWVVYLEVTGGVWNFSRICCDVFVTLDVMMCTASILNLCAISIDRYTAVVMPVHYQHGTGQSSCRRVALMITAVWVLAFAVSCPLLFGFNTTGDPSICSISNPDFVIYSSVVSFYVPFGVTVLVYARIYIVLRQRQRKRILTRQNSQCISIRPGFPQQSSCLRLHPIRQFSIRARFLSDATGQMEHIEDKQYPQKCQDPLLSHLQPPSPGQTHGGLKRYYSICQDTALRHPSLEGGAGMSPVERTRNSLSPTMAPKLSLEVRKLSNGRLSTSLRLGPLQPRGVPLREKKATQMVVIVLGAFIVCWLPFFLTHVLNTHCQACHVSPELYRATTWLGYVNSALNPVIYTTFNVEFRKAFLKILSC

With `CCCN(CCC)C1CCc2ccc3[nH]cc(CC(F)(F)F)c3c2C1` (stereo not drawn), the ED50 entry with Rattus norvegicus [1], in the data set on Rattus norvegicus [2], in the data set on Rattus norvegicus [5], in the data set on Rattus norvegicus [9] and in the data set with Rattus norvegicus [11] was “inactive” each time. The median effective dose (ED50) entry in the data set on Rattus norvegicus [3] is “Weak activity”. Moreover, the Ki on D(3) dopamine receptor [4] was determined as 134 nM; in [6], 409 nM; on D(2) dopamine receptor [7] it was 86 nM; in [8], 54 nM; in [10], 18 nM.
With `CCCN(CCC)[C@H]1CCc2ccc3[nH]cc(C=O)c3c2C1`, the inhibition constant (Ki) on D(2) dopamine receptor [12] was found to be 423 nM; on D(3) dopamine receptor [13] (read-out: Ki), 751 nM; in data set [6], 939 nM; in [8], 155 nM. The ED50 with Rattus norvegicus [14] was found to be 0.0052 µmol/kg. For the same molecule, in the data set on Rattus norvegicus [15], the ED50 entry is “inactive”.
As for `CN(C)[C@H]1CCc2ccc3[nH]ccc3c2C1`, the AUC in the data set on Rattus norvegicus [16] is reported as 607 pM ml-1; in the data set with Rattus norvegicus [17] it was 2224 pM ml-1. In addition, the time to peak (Tmax) in data set [18] turned out to be 2 h; in data set [19] it was 48 h. The bioavailability in [20] was 72%. Besides, in data set [21], the ED50 ratio is 18.
With `CCCN(CCC)[C@H]1CCc2ccc3[nH]ccc3c2C1`, the ED50 was 0.82 µmol/kg in the data set with Rattus norvegicus [22]; 0.21 µmol/kg in the data set on Rattus norvegicus [23]; 0.34 µmol/kg with Rattus norvegicus [24]; 0.51 µmol/kg with Rattus norvegicus [26]; 0.23 µmol/kg in the data set with Rattus norvegicus [28]. The ED50 result with Rattus norvegicus [25] was “inactive”. For the same molecule, the Ki amounted to 2280 nM in data set [6], 17 nM on D(2) dopamine receptor [7], 440 nM in data set [8] and 22 nM at D(3) dopamine receptor [27].
In the case of `CCCN(CCC)[C@@H]1CCc2ccc3[nH]cc(C(=O)C(N)=O)c3c2C1`, the Ki was 472 nM at D(2) dopamine receptor [12]; “Not Active” at D(3) dopamine receptor [13] (cho-k1); 856 nM in data set [6]; 54 nM in data set [8]; 17 nM in [10].
Regarding `CCCN(CCC)C1CCc2ccc3[nH]cc(C(=O)c4ccccc4)c3c2C1` (stereo not drawn), the Ki at D(2) dopamine receptor [7] was 177 nM; on D(3) dopamine receptor [27] it was 108 nM; in data set [10] it was 8.6 nM.
Take `CCCN(CCC)[C@H]1CCc2cc(F)c3[nH]ccc3c2C1`: the median effective dose (ED50) with Rattus norvegicus [22] turned out to be 0.43 µmol/kg; in the data set with Rattus norvegicus [23], 0.74 µmol/kg; with Rattus norvegicus [24] it was 0.42 µmol/kg; with Rattus norvegicus [26] it was 0.8 µmol/kg; in the data set on Rattus norvegicus [28], 0.83 µmol/kg. For the same molecule, the figures for the inhibition constant (Ki) (at D(2) dopamine receptor [12]; in data set [6]; in data set [10]) were 4.4 nM, 948 nM and 3.7 nM, respectively. In addition, in the data set with Rattus norvegicus [29], the ED50 result was “inactive”.
The molecule `CCCN(CCC)C1CCc2ccc3[nH]cc(C(=O)C(=O)N(CC)CC)c3c2C1` (stereo not drawn) came in with a Ki in [10] of 7.3 nM.
Take `CCCN(CCC)[C@H]1CCc2ccc3[nH]cc(C#N)c3c2C1`: the ED50 result in the data set on Rattus norvegicus [30] and in the data set with Rattus norvegicus [32] was “Weak activity” each time. In addition, the ED50 result in the data set with Rattus norvegicus [31] is “inactive”. The inhibition constant Ki in [6] was determined as 304 nM; on D(2) dopamine receptor [7] it was 419 nM; in data set [8] it was 42 nM; at D(3) dopamine receptor [27], 391 nM; in [10] it was 0.5 nM.
With `CCCN(CCC)C1CCc2cc(F)c3[nH]ccc3c2C1` (stereo not drawn), the ED50 with Rattus norvegicus [22] worked out at 1 µmol/kg; in the data set on Rattus norvegicus [23] it was 1.92 µmol/kg; in the data set on Rattus norvegicus [24], 0.06 µmol/kg; in the data set with Rattus norvegicus [26], 1.17 µmol/kg; in the data set on Rattus norvegicus [28], 0.54 µmol/kg. The Ki was determined as 2.8 nM on D(2) dopamine receptor [12], 216 nM in data set [6] and 1.4 nM in data set [10]. In addition, in the data set on Rattus norvegicus [29], the ED50 entry was “inactive”.
